Results taken from the supplement of paper PMC10307832.

Legend:
Assay in all cases: relative viability (nuclei count vs DMSO), 5 days (fraction); higher = more cells survive
[1] = compound: CN(C)CC1=CC(=CC=C1)N=C(C2=CC=CC=C2)C3=C(NC4=C3C=CC(=C4)C(=O)N(C)C)O + CC1(C)CCC(c2ccc(Cl)cc2)=C(CN2CCN(c3ccc(C(=O)NS(=O)(=O)c4ccc(N[C@H](CCN5CCOCC5)CSc5ccccc5)c(S(=O)(=O)C(F)(F)F)c4)cc3)CC2)C1 [Navitoclax] (partner 0.5 µM)
How it was run: (§1)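 One day after seeding in 1536-well plates, lung cancer cell lines were dosed by pin tool. Dosing was either single-drug or a fixed anchor-drug dose plus five library-drug doses (not always all listed) in √10 steps. After 5 days, nuclei were stained in one fix-and-stain step and counted on 4× images, and relative viability is the nuclei count of treated wells over that of vehicle wells, given as the median of duplicate plates.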

[2] = compound: CN(C)CC1=CC(=CC=C1)N=C(C2=CC=CC=C2)C3=C(NC4=C3C=CC(=C4)C(=O)N(C)C)O + O=C(CCCCCCC(=O)Nc1ccccc1)NO [Vorinostat] (partner 1 µM)
How it was run: as §1

[3] = compound: CN(C)CC1=CC(=CC=C1)N=C(C2=CC=CC=C2)C3=C(NC4=C3C=CC(=C4)C(=O)N(C)C)O + Cc1nc(NC(=O)N2CCC[C@H]2C(N)=O)sc1-c1ccnc(C(C)(C)C(F)(F)F)c1 [Alpelisib] (partner 2 µM)
How it was run: as §1

[4] = compound: CN(C)CC1=CC(=CC=C1)N=C(C2=CC=CC=C2)C3=C(NC4=C3C=CC(=C4)C(=O)N(C)C)O + C[C@]1(O)C[C@@H](c2nc(-c3ccc4ccc(-c5ccccc5)nc4c3)c3c(N)nccn32)C1 [Linsitinib] (partner 1 µM)
How it was run: as §1

Row | Cell Line | relative viability ([1]; first compound 0.08 µM) | relative viability ([1]; first compound 0.253 µM) | relative viability ([1]; first compound 0.8 µM) | relative viability ([1]; first compound 2.53 µM) | relative viability ([1]; first compound 8 µM) | relative viability ([2]; first compound 0.08 µM) | relative viability ([2]; first compound 0.253 µM) | relative viability ([2]; first compound 0.8 µM) | relative viability ([2]; first compound 2.53 µM) | relative viability ([2]; first compound 8 µM) | relative viability ([3]; first compound 0.08 µM) | relative viability ([3]; first compound 0.253 µM) | relative viability ([3]; first compound 0.8 µM) | relative viability ([3]; first compound 2.53 µM) | relative viability ([3]; first compound 8 µM) | relative viability ([4]; first compound 0.08 µM) | relative viability ([4]; first compound 0.253 µM) | relative viability ([4]; first compound 0.8 µM) | relative viability ([4]; first compound 2.53 µM) | relative viability ([4]; first compound 8 µM)
1 | LU99A | 0.827 | 0.581 | 0.879 | 0.781 | 0.882 | 0.517 | 0.515 | 0.495 | 0.416 | 0.469 | 0.486 | 0.579 | 0.497 | 0.559 | 0.364 | 0.546 | 0.545 | 0.496 | 0.534 | 0.485
2 | HCC-15 | 0.708 | 0.705 | 0.726 | 0.731 | 0.667 | 0.875 | 0.821 | 0.787 | 0.868 | 0.89 | 0.947 | 0.802 | 0.927 | 0.937 | 0.954 | 0.869 | 0.849 | 0.976 | 0.974 | 0.805
3 | HCC-827 | 1.04 | 1.02 | 1.06 | 1 | 0.941 | 0.861 | 0.803 | 0.801 | 0.867 | 0.815 | 1.06 | 1.04 | 0.93 | 0.923 | 0.875 | 0.984 | 0.944 | 1.03 | 0.925 | 0.937
4 | NCI-H1734 | 0.821 | 0.836 | 0.889 | 0.844 | 0.644 | 0.909 | 0.829 | 0.828 | 0.86 | 0.66 | 0.624 | 0.71 | 0.643 | 0.693 | 0.5 | 0.763 | 0.911 | 0.957 | 0.9 | 0.762
5 | NCI-H3122 | 1.01 | 1.01 | 1.06 | 1.03 | 1.04 | 0.966 | 0.947 | 1.17 | 0.905 | 0.898 | 0.679 | 0.81 | 0.813 | 0.732 | 0.792 | 1.08 | 1.05 | 1.08 | 0.972 | 1.05
6 | PC-3 [JPC-3] | 0.787 | 0.703 | 0.643 | 0.84 | 0.843 | 0.853 | 0.834 | 0.682 | 0.883 | 1.03 | 1.02 | 0.976 | 1.04 | 1.01 | 1.02 | 0.985 | 0.907 | 0.883 | 0.967 | 1.06
7 | NCI-H2087 | 1.02 | 0.942 | 1.17 | 1.03 | 0.9 | 0.53 | 0.668 | 0.69 | 0.796 | 0.846 | 1.14 | 1.24 | 1.15 | 1.15 | 0.992 | 0.981 | 1.01 | 1.06 | 0.828 | 0.966
8 | 201T | 1.2 | 1.23 | 1.14 | 1.17 | 1.18 | 0.988 | 0.961 | 0.908 | 0.946 | 0.879 | 1 | 0.968 | 0.977 | 0.962 | 0.955 | 1.07 | 1.06 | 0.937 | 1.04 | 0.927
9 | NCI-H1993 | 0.935 | 1.02 | 0.885 | 0.933 | 1.09 | 0.904 | 0.79 |  | 1.14 | 0.994 | 0.83 | 0.671 | 0.622 | 0.694 | 0.732 | 0.716 | 0.787 | 0.7 | 0.737 | 0.799
10 | NCI-H2085 | 1.24 | 1.16 | 1.06 | 1.16 | 1.18 | 0.785 | 0.777 | 0.785 | 0.819 | 0.773 | 1.03 | 0.973 | 1.05 | 0.949 | 1.06 | 0.897 | 0.844 | 0.875 | 0.92 | 0.916
11 | BEN | 0.0778 | 0.06 | 0.0663 | 0.0535 | 0.0691 | 0.577 | 0.609 | 0.578 | 0.603 | 0.575 | 1.02 | 0.947 | 1.08 | 0.928 | 0.82 | 0.98 | 0.876 | 0.793 | 0.846 | 0.75
12 | RERF-LC-KJ | 1.06 | 0.645 | 0.833 | 1.03 | 0.866 | 0.744 | 0.703 | 0.605 | 0.64 | 0.681 | 0.838 | 0.843 | 0.732 | 0.785 | 0.928 | 0.912 | 0.93 | 0.81 | 0.948 | 0.87
13 | SK-MES-1 | 1.25 | 1.26 | 1.09 | 1.15 | 1.1 | 1.13 | 1.08 | 1.08 | 1.01 | 1.03 | 0.876 | 0.883 | 0.716 | 0.851 | 0.875 | 1.1 | 1 | 1.07 | 0.918 | 0.988
14 | PC-14 | 1.08 | 1.03 | 0.965 | 1.03 | 1.07 | 0.576 | 0.675 | 0.833 | 0.687 | 0.592 | 0.92 | 0.865 | 0.962 | 0.924 | 0.837 | 0.98 | 0.954 | 0.96 | 0.874 | 0.998
15 | NCI-H1563 |  |  |  |  |  |  |  |  |  |  | 1.03 | 1.03 | 0.956 | 0.875 | 0.847 | 1.19 | 1.28 | 1.15 | 1.08 | 1.14
16 | NCI-H2009 | 1.14 | 1.12 | 1.17 | 1.16 | 1.17 | 0.76 | 0.724 | 0.756 | 0.727 | 0.708 | 1.15 | 1.11 | 1.1 | 1.04 | 1.05 | 1.19 | 1.21 | 1.21 | 1.12 | 1.19
